Test results taken from PubChem BioAssay (NCI).
“And” between values parts separate entries of the source, which are not always exact repeats. Equal values may be shown once.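 Results reflect a 48-hour exposure of cells in 96-well plates to compound at five concentrations. Here, GI50 denotes the concentration required for 50% inhibition of growth. The concentration for full growth arrest is given as TGI.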

Experiments:
Test in all cases: NCI-60 cell line screen, 48 h
[1] = tested on: HCT-116 colon
[2] = tested on: 786-0 renal
[3] = tested on: M14 melanoma
[4] = tested on: HOP-62 NSCLC
[5] = tested on: HCT-15 colon
[6] = tested on: DU-145 prostate
[7] = tested on: OVCAR-5 ovarian
[8] = tested on: ACHN renal
[9] = tested on: NCI-H23 lung
[10] = tested on: HCC-2998 colon
[11] = tested on: SK-MEL-5 melanoma
[12] = tested on: SW-620 colon
[13] = tested on: RXF 393 renal
[14] = tested on: SK-OV-3 ovarian
[15] = tested on: MDA-MB-231 breast
[16] = tested on: SN12C renal
[17] = tested on: PC-3 prostate
[18] = tested on: KM12 colon
[19] = tested on: RPMI-8226 leukemia
[20] = tested on: SF-268 CNS
[21] = tested on: SR leukemia
[22] = tested on: UACC-257 melanoma
[23] = tested on: SK-MEL-28 melanoma
[24] = tested on: NCI-H522 lung
[25] = tested on: TK-10 renal
[26] = tested on: LOX IMVI melanoma
[27] = tested on: UACC-62 melanoma
[28] = tested on: HT29 colon
[29] = tested on: HOP-92 NSCLC
[30] = tested on: NCI-H226 lung
[31] = tested on: A498 renal
[32] = tested on: SF-295 CNS
[33] = tested on: BT-549 breast
[34] = tested on: HS 578T breast
[35] = tested on: COLO 205 colon
[36] = tested on: UO-31 renal
[37] = tested on: HL-60(TB) leukemia
[38] = tested on: OVCAR-4 ovarian
[39] = tested on: CCRF-CEM leukemia
[40] = tested on: U251 CNS
[41] = tested on: K-562 leukemia
[42] = tested on: SNB-19 CNS
[43] = tested on: OVCAR-8 ovarian
[44] = tested on: EKVX NSCLC
[45] = tested on: NCI/ADR-RES ovarian
[46] = tested on: MOLT-4 leukemia
[47] = tested on: IGROV1 ovarian
[48] = tested on: A549 NSCLC
[49] = tested on: NCI-H460 lung
[50] = tested on: OVCAR-3 ovarian
[51] = tested on: SNB-75 CNS
[52] = tested on: MDA-MB-435
[53] = tested on: CAKI-1 renal
[54] = tested on: SK-MEL-2 melanoma
[55] = tested on: T-47D breast
[56] = tested on: MCF7 breast

SMILES: CSc1ccc2c(c1)C(=O)c1c-2n(CCCN)c(=O)c2cc([N+](=O)[O-])ccc12
- GI50 [1]: < 10 nM
- TGI [1]: 173 nM
- GI50 [2]: 12.7 nM
- TGI [2]: 108 nM
- GI50 [3]: 24.9 nM
- TGI [3]: 1070 nM
- GI50 [4]: < 10 nM
- TGI [4]: 147 nM
- GI50 [5]: 96.2 nM
- TGI [5]: 249 nM
- GI50 [6]: < 10 nM
- TGI [6]: 160 nM
- GI50 [7]: 123 nM
- TGI [7]: 872 nM
- GI50 [8]: < 10 nM
- TGI [8]: 327 nM
- GI50 [9]: < 10 nM
- TGI [9]: 158 nM
- GI50 [10]: 104 nM
- TGI [10]: 581 nM
- GI50 [11]: 127 nM
- TGI [11]: 1630 nM
- GI50 [12]: < 10 nM
- TGI [12]: 209 nM
- GI50 [13]: 1950 nM
- TGI [13]: > 100000 nM
- GI50 [14]: < 11.7 nM
- TGI [14]: 1370 nM
- GI50 [15]: 215 nM
- TGI [15]: 422 nM

SMILES: COc1ccc(C(C)c2cc(OC)c(OC)c(OC)c2)cc1 (stereo not drawn)
- GI50 [16]: 546 nM
- TGI [16]: > 50000 nM
- GI50 [17]: 165 nM
- TGI [17]: > 50000 nM
- GI50 [18]: 58 nM
- TGI [18]: > 50000 nM
- GI50 [19]: 209 nM
- TGI [19]: > 50000 nM
- GI50 [20]: 621 nM
- TGI [20]: > 50000 nM
- GI50 [21]: 30.3 nM
- TGI [21]: > 50000 nM
- GI50 [2]: 213 nM
- TGI [2]: > 50000 nM
- GI50 [22]: 32300 nM
- TGI [22]: > 50000 nM
- GI50 [23]: 25200 nM
- TGI [23]: > 50000 nM
- GI50 [24]: 133 nM
- TGI [24]: > 50000 nM
- GI50 [25]: > 50000 nM
- TGI [25]: > 50000 nM
- GI50 [26]: 537 nM
- TGI [26]: > 50000 nM
- GI50 [27]: 270 nM
- TGI [27]: > 50000 nM
- GI50 [28]: 107 nM
- TGI [28]: > 50000 nM
- GI50 [29]: 3600 nM
- TGI [29]: > 50000 nM
- GI50 [30]: 46500 nM
- TGI [30]: > 50000 nM
- GI50 [31]: 125 nM
- TGI [31]: > 50000 nM
- GI50 [32]: 75.2 nM
- TGI [32]: > 50000 nM
- GI50 [4]: 259 nM
- TGI [4]: > 50000 nM
- GI50 [5]: 88 nM
- TGI [5]: > 50000 nM
- GI50 [6]: 198 nM
- TGI [6]: > 50000 nM
- GI50 [33]: 223 nM
- TGI [33]: > 50000 nM
- GI50 [34]: 244 nM
- TGI [34]: > 50000 nM
- GI50 [35]: 109 nM
- TGI [35]: 325 nM
- GI50 [36]: 409 nM
- TGI [36]: > 50000 nM
- GI50 [37]: 97.9 nM
- TGI [37]: 374 nM
- GI50 [38]: 2970 nM
- TGI [38]: > 50000 nM
- GI50 [7]: 291 nM
- TGI [7]: > 50000 nM
- GI50 [39]: 182 nM
- TGI [39]: > 50000 nM
- GI50 [40]: 173 nM
- TGI [40]: > 50000 nM
- GI50 [8]: 341 nM
- TGI [8]: > 50000 nM
- GI50 [41]: 26.1 nM
- TGI [41]: > 50000 nM
- GI50 [9]: 292 nM
- TGI [9]: > 50000 nM
- GI50 [10]: 210 nM
- TGI [10]: > 50000 nM
- GI50 [42]: 221 nM
- TGI [42]: > 50000 nM
- GI50 [43]: 263 nM
- TGI [43]: > 50000 nM
- GI50 [11]: 130 nM
- TGI [11]: 12800 nM
- GI50 [44]: 373 nM
- TGI [44]: > 50000 nM
- GI50 [12]: 58.1 nM
- TGI [12]: > 50000 nM
- GI50 [45]: 57.4 nM
- TGI [45]: > 50000 nM
- GI50 [46]: 264 nM
- TGI [46]: > 50000 nM
- GI50 [47]: 278 nM
- TGI [47]: > 50000 nM
- GI50 [48]: 189 nM
- TGI [48]: > 50000 nM
- GI50 [49]: 177 nM
- TGI [49]: > 50000 nM
- GI50 [13]: 126 nM
- TGI [13]: > 50000 nM
- GI50 [50]: 88.9 nM
- TGI [50]: 384 nM
- GI50 [14]: 159 nM
- TGI [14]: > 50000 nM
- GI50 [15]: 341 nM
- TGI [15]: > 50000 nM

SMILES: Nc1ncnc2c1ncn2C1OC(COS(N)(=O)=O)C(O)C1O (stereo not drawn)
- GI50 [16]: < 1 nM
- GI50 [17]: 24.3 nM
- TGI [17]: 58.7 nM
- GI50 [19]: 2.87 nM and 28.3 nM
- TGI [19]: 265 nM and 66.1 nM
- GI50 [21]: < 1 nM
- TGI [21]: 13.6 nM
- GI50 [1]: 2.52 nM and 24.8 nM
- TGI [1]: 15.6 nM and 65.6 nM
- GI50 [2]: 2.13 nM and 20.4 nM
- TGI [2]: 4.65 nM and 43.3 nM
- GI50 [23]: 2.25 nM and 22.1 nM
- TGI [23]: 5.21 nM and 50.9 nM
- TGI [24]: 14.8 nM
- GI50 [3]: 2.14 nM and 18.1 nM
- TGI [3]: 4.94 nM and 36 nM
- GI50 [26]: 18 nM
- TGI [26]: 38.2 nM
- TGI [29]: 6.19 nM and 61.1 nM
- GI50 [30]: 2.03 nM
- TGI [30]: 3.98 nM
- GI50 [31]: 16.4 nM
- TGI [31]: 34.4 nM
- GI50 [5]: 2.55 nM
- TGI [5]: 7.1 nM
- GI50 [6]: < 1 nM
- GI50 [33]: 2.66 nM and 26.6 nM
- GI50 [51]: 2.55 nM and 19.4 nM
- TGI [51]: 8.3 nM and 56.5 nM
- GI50 [35]: 2.39 nM and 21.9 nM
- TGI [35]: 5.08 nM and 43.2 nM
- GI50 [37]: < 1 nM
- TGI [37]: 3.78 nM
- GI50 [38]: 1.18 nM
- TGI [38]: 7.18 nM and 35.7 nM
- TGI [39]: 173 nM
- TGI [9]: 5.58 nM and 54.6 nM
- GI50 [42]: < 1 nM
- GI50 [43]: < 1 nM
- TGI [43]: 3.94 nM
- GI50 [11]: 1.77 nM and 17.5 nM
- TGI [11]: 3.36 nM and 32.1 nM
- GI50 [52]: 1.84 nM and 18 nM
- TGI [52]: 3.56 nM and 35.5 nM
- GI50 [46]: 21.9 nM
- TGI [46]: 109 nM
- GI50 [47]: 2.91 nM and 24.8 nM
- TGI [47]: 7.81 nM and 65 nM
- TGI [14]: 7.84 nM and 75.8 nM
- GI50 [15]: < 1 nM

SMILES: CN(C)C1(N(C)C)Oc2c(c(=O)n(C)c(=O)n2C)C(c2ccc(C(F)(F)F)cc2)C1(F)F (stereo not drawn)
- TGI [17]: > 100000 nM
- TGI [18]: > 100000 nM
- TGI [19]: > 100000 nM
- TGI [20]: > 100000 nM
- TGI [1]: > 100000 nM
- TGI [2]: > 100000 nM
- TGI [22]: > 100000 nM
- TGI [23]: > 100000 nM
- TGI [53]: > 100000 nM
- TGI [3]: > 100000 nM
- TGI [25]: > 100000 nM
- TGI [26]: > 100000 nM
- TGI [27]: > 100000 nM
- TGI [29]: > 100000 nM
- TGI [30]: > 100000 nM
- TGI [31]: > 100000 nM
- TGI [32]: > 100000 nM
- TGI [4]: > 100000 nM
- TGI [5]: > 100000 nM
- TGI [6]: > 100000 nM
- TGI [33]: > 100000 nM
- TGI [51]: > 100000 nM
- TGI [54]: > 100000 nM
- TGI [35]: > 100000 nM
- TGI [36]: > 100000 nM
- TGI [38]: > 100000 nM
- TGI [7]: > 100000 nM
- TGI [55]: > 100000 nM
- TGI [39]: > 100000 nM
- TGI [40]: > 100000 nM
- TGI [8]: > 100000 nM
- TGI [41]: > 100000 nM
- TGI [9]: > 100000 nM
- TGI [10]: > 100000 nM
- TGI [42]: > 100000 nM
- TGI [11]: > 100000 nM
- TGI [44]: > 100000 nM
- TGI [12]: > 100000 nM
- TGI [56]: > 100000 nM
- TGI [52]: > 100000 nM
- TGI [45]: > 100000 nM
- TGI [48]: > 100000 nM
- TGI [49]: > 100000 nM
- TGI [13]: > 100000 nM
- TGI [50]: > 100000 nM
- TGI [14]: > 100000 nM
- TGI [15]: > 100000 nM
